PubChem BioAssay AID330 (DTP/NCI, 2004)
Values joined by “and” are separate entries in the source; they are usually repeats but may differ in a detail not shown here. Identical values can stand only once. Inconclusive results and toxic doses are left out. Peptide text beside a SMILES is read from it.

System: P388 leukemia ip, CD2F1 mice, survival T/C
Test: NCI In Vivo Anticancer Drug Screen. Data for tumor model P388 Leukemia (intraperitoneal) in CD2F1 (CDF1) mice
Settings: endpoint: median survival time, higher = longer survival
Method in brief: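 Mice carrying the transplanted tumor received test compound or vehicle. Survival was recorded in each group, and the value is the treated-group measurement divided by that of the vehicle-treated control group.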

[1] = dose: 50.0 mg/kg/injection, schedule: Q01DX009 (ip), vehicle: saline
[2] = dose: 100.0 mg/kg/injection, schedule: Q01DX009 (ip), vehicle: saline
[3] = dose: 200.0 mg/kg/injection, schedule: Q01DX009 (ip), vehicle: saline
[4] = dose: 25.0 mg/kg/injection, schedule: Q01DX009 (ip), vehicle: saline with Tween-80
[5] = dose: 50.0 mg/kg/injection, schedule: Q01DX009 (ip), vehicle: saline with Tween-80
[6] = dose: 100.0 mg/kg/injection, schedule: Q01DX009 (ip), vehicle: saline with Tween-80
[7] = dose: 25.0 mg/kg/injection, schedule: Q04DX002 (ip), vehicle: saline
[8] = dose: 50.0 mg/kg/injection, schedule: Q01DX005 (ip), vehicle: saline with Tween-80
[9] = dose: 100.0 mg/kg/injection, schedule: Q01DX005 (ip), vehicle: saline with Tween-80
[10] = dose: 200.0 mg/kg/injection, schedule: Q01DX005 (ip), vehicle: saline with Tween-80
[11] = dose: 50.0 mg/kg/injection, schedule: Q01DX005 (ip), vehicle: Klucel (hydroxypropylcellulose) (HPC)
[12] = dose: 100.0 mg/kg/injection, schedule: Q01DX005 (ip), vehicle: Klucel (hydroxypropylcellulose) (HPC)
[13] = dose: 200.0 mg/kg/injection, schedule: Q01DX005 (ip), vehicle: Klucel (hydroxypropylcellulose) (HPC)
[14] = dose: 60.0 mg/kg/injection, schedule: Q01DX005 (ip), vehicle: saline with Tween-80
[15] = dose: 120.0 mg/kg/injection, schedule: Q01DX005 (ip), vehicle: saline with Tween-80
[16] = dose: 240.0 mg/kg/injection, schedule: Q01DX005 (ip), vehicle: saline with Tween-80
[17] = dose: 200.0 mg/kg/injection, schedule: Q01DX009 (ip), vehicle: saline with Tween-80

COC(=O)CS(=O)(=O)CCS(=O)(=O)CC(=O)OC
T/C (dose: 12.5 mg/kg/injection, schedule: Q01DX009 (ip), vehicle: saline): 99 % of control and 100 % of control | T/C (dose: 25.0 mg/kg/injection, schedule: Q01DX009 (ip), vehicle: saline): 94 % of control and 98 % of control | T/C [1]: 99 % of control and 124 % of control and 98 % of control | T/C [2]: 103 % of control and 104 % of control and 113 % of control | T/C [3]: 114 % of control

Cc1ccc([SeH])cc1.[Sn]
T/C [4]: 92 % of control | T/C [5]: 94 % of control | T/C [6]: 86 % of control

CN(C)C(=O)c1cc(C(=O)N(C)C)cc2cccc-2c1
T/C [7]: 102 % of control | T/C (dose: 50.0 mg/kg/injection, schedule: Q04DX002 (ip), vehicle: saline): 98 % of control | T/C (dose: 100.0 mg/kg/injection, schedule: Q04DX002 (ip), vehicle: saline): 99 % of control and 97 % of control

COC(=O)c1ncn(Cc2ccccc2)c1N
T/C (dose: 25.0 mg/kg/injection, schedule: Q04DX002 (ip), vehicle: saline with Tween-80): 101 % of control | T/C (dose: 50.0 mg/kg/injection, schedule: Q04DX002 (ip), vehicle: saline with Tween-80): 91 % of control | T/C (dose: 100.0 mg/kg/injection, schedule: Q04DX002 (ip), vehicle: saline with Tween-80): 104 % of control and 93 % of control

CCN(CC)C(=O)c1c(C(=O)OC)c(C)n(NC(N)=O)c1C
T/C [8]: 105 % of control | T/C [9]: 107 % of control | T/C [10]: 108 % of control

c1cncc(-c2cc(-c3cc(-c4cccnc4)n[nH]3)[nH]n2)c1
T/C (dose: 60.0 mg/kg/injection, schedule: Q01DX005 (ip), vehicle: Klucel (hydroxypropylcellulose) (HPC)): 103 % of control | T/C (dose: 120.0 mg/kg/injection, schedule: Q01DX005 (ip), vehicle: Klucel (hydroxypropylcellulose) (HPC)): 103 % of control | T/C (dose: 240.0 mg/kg/injection, schedule: Q01DX005 (ip), vehicle: Klucel (hydroxypropylcellulose) (HPC)): 91 % of control

O=C(Nc1nc2ccccc2s1)Nc1ccc([N+](=O)[O-])cc1Cl
T/C [11]: 98 % of control | T/C [12]: 94 % of control | T/C [13]: 90 % of control

Cc1c(NC(=O)Nc2ccc(F)cc2)c(=O)n(-c2ccccc2)n1C
T/C [14]: 114 % of control | T/C [15]: 99 % of control | T/C [16]: 96 % of control

CCOC(=O)c1cc(-c2cc(C(=O)OCC)c3ccccc3n2)nc2ccccc12
T/C (dose: 6.25 mg/kg/injection, schedule: Q01DX005 (ip), vehicle: saline with Tween-80): 96 % of control | T/C (dose: 12.5 mg/kg/injection, schedule: Q01DX005 (ip), vehicle: saline with Tween-80): 95 % of control | T/C (dose: 25.0 mg/kg/injection, schedule: Q01DX005 (ip), vehicle: saline with Tween-80): 100 % of control | T/C [9]: 86 % of control

O=C1CSC(c2ccc(Cl)c(Cl)c2)N1c1nncs1 (centres undefined)
T/C [8]: 103 % of control | T/C [9]: 93 % of control | T/C [10]: 99 % of control

O=C1CN(CCCN2CCOCC2)CC(=O)N2Cc3ccccc3CN12
T/C (dose: 50.0 mg/kg/injection, schedule: Q01DX005 (ip), vehicle: saline): 95 % of control | T/C (dose: 100.0 mg/kg/injection, schedule: Q01DX005 (ip), vehicle: saline): 110 % of control | T/C (dose: 200.0 mg/kg/injection, schedule: Q01DX005 (ip), vehicle: saline): 108 % of control

NC(=S)c1ccccc1N=Cc1ccccn1
T/C (dose: 100.0 mg/kg/injection, schedule: Q04DX003 (ip), vehicle: Klucel (hydroxypropylcellulose) (HPC)): 100 % of control | T/C (dose: 200.0 mg/kg/injection, schedule: Q04DX003 (ip), vehicle: Klucel (hydroxypropylcellulose) (HPC)): 107 % of control

O=[n+]1c2c(n([O-])c3ccccc31)CCCCCC2
T/C [5]: 108 % of control | T/C [6]: 99 % of control | T/C [17]: 100 % of control

C/C(Cl)=C\C(=O)c1c(C)[nH]n(-c2ccccc2)c1=O
T/C [11]: 99 % of control | T/C [12]: 111 % of control

Cc1cc(Cl)ccc1NC(=O)C1C(=O)N(c2ccc(Cl)cc2C)C(=O)/C1=N\NC(N)=O (centres undefined)
T/C [14]: 101 % of control | T/C [15]: 93 % of control | T/C [16]: 98 % of control

Cc1c([N+](=O)[O-])c(=O)[nH]n1C
T/C [5]: 96 % of control | T/C [6]: 88 % of control | T/C [17]: 89 % of control

Cc1ccc(C)c([N+](=O)[O-])c1C(=O)O
T/C (dose: 100.0 mg/kg/injection, schedule: Q04DX003 (ip), vehicle: saline + alcohol): 98 % of control | T/C (dose: 200.0 mg/kg/injection, schedule: Q04DX003 (ip), vehicle: saline + alcohol): 98 % of control

CC(C)(C)c1nnc2cccc(Cl)n12
T/C (dose: 100.0 mg/kg/injection, schedule: Q01DX001 (ip), vehicle: Klucel (hydroxypropylcellulose) (HPC)): 100 % of control | T/C (dose: 200.0 mg/kg/injection, schedule: Q01DX001 (ip), vehicle: Klucel (hydroxypropylcellulose) (HPC)): 99 % of control | T/C (dose: 400.0 mg/kg/injection, schedule: Q01DX001 (ip), vehicle: Klucel (hydroxypropylcellulose) (HPC)): 103 % of control

O=c1c2cc(O)ccc2oc2cc(O)cc(O)c12
T/C (dose: 10.0 mg/kg/injection, schedule: Q01DX009 (ip), vehicle: saline): 104 % of control | T/C (dose: 20.0 mg/kg/injection, schedule: Q01DX009 (ip), vehicle: saline): 111 % of control | T/C (dose: 40.0 mg/kg/injection, schedule: Q01DX009 (ip), vehicle: saline): 111 % of control | T/C (dose: 80.0 mg/kg/injection, schedule: Q01DX009 (ip), vehicle: saline): 105 % of control

CC(C)CC(N)C(=O)NC(CCCN=C(N)N)C(=O)NC(CCCN=C(N)N)C(=O)NC(C)C(=O)NC(CO)C(=O)NC(CC(C)C)C(=O)NCC(=O)O (centres undefined) (H-LRRASLG-OH; configuration not given here)
T/C (dose: 2.25 mg/kg/injection, schedule: Q01DX009 (ip), vehicle: Klucel (hydroxypropylcellulose) (HPC)): 103 % of control | T/C (dose: 4.5 mg/kg/injection, schedule: Q01DX009 (ip), vehicle: Klucel (hydroxypropylcellulose) (HPC)): 100 % of control | T/C (dose: 9.0 mg/kg/injection, schedule: Q01DX009 (ip), vehicle: Klucel (hydroxypropylcellulose) (HPC)): 100 % of control | T/C (dose: 18.0 mg/kg/injection, schedule: Q01DX009 (ip), vehicle: Klucel (hydroxypropylcellulose) (HPC)): 106 % of control | T/C (dose: 36.0 mg/kg/injection, schedule: Q01DX009 (ip), vehicle: Klucel (hydroxypropylcellulose) (HPC)): 106 % of control

C=C1C(=O)OC2(C)CCC1CC1OC1(C)CCC=C(C)CCC2O (centres undefined)
T/C (dose: 12.5 mg/kg/injection, schedule: Q01DX009 (ip), vehicle: Klucel (hydroxypropylcellulose) (HPC)): 98 % of control | T/C (dose: 25.0 mg/kg/injection, schedule: Q01DX009 (ip), vehicle: Klucel (hydroxypropylcellulose) (HPC)): 101 % of control | T/C (dose: 50.0 mg/kg/injection, schedule: Q01DX009 (ip), vehicle: Klucel (hydroxypropylcellulose) (HPC)): 106 % of control | T/C (dose: 100.0 mg/kg/injection, schedule: Q01DX009 (ip), vehicle: Klucel (hydroxypropylcellulose) (HPC)): 101 % of control | T/C (dose: 200.0 mg/kg/injection, schedule: Q01DX009 (ip), vehicle: Klucel (hydroxypropylcellulose) (HPC)): 106 % of control

CCCCC(=O)C(=O)c1ccc(O)c(C)c1O
T/C [5]: 96 % of control | T/C [6]: 93 % of control | T/C [17]: 96 % of control

COC(=O)c1cc(CC[N+](C)(C)Cc2ccccc2)c2ccccn12
T/C (dose: 6.25 mg/kg/injection, schedule: Q04DX002 (ip), vehicle: saline): 104 % of control | T/C (dose: 12.5 mg/kg/injection, schedule: Q04DX002 (ip), vehicle: saline): 96 % of control | T/C [7]: 106 % of control

CC(=O)CC(C)O (centres undefined)
T/C [1]: 99 % of control | T/C [2]: 89 % of control | T/C [3]: 92 % of control

COc1ccc(/C=C2/N=C(c3ccc(Cl)c(Cl)c3)OC2=O)cc1OC
T/C [11]: 90 % of control | T/C [12]: 88 % of control | T/C [13]: 94 % of control

CC(=O)OC1CC(C)(O)Cc2cc3c(c(O)c21)C(=O)c1c(O)cc2c(c1C3=O)OC1OC2(C)C(O)C(N(C)C)C1O (centres undefined)
T/C (dose: 3.5 mg/kg/injection, schedule: Q01DX009 (ip), vehicle: other): 153 % of control | T/C (dose: 7.0 mg/kg/injection, schedule: Q01DX009 (ip), vehicle: other): 166 % of control | T/C (dose: 14.0 mg/kg/injection, schedule: Q01DX009 (ip), vehicle: other): 167 % of control

O=C1C2C3C=CC(C2C(=O)N1CCl)C1C2C(=O)N(CCl)C(=O)C2C31 (centres undefined)
T/C (dose: 6.25 mg/kg/injection, schedule: Q01DX009 (ip), vehicle: saline with Tween-80): 105 % of control | T/C (dose: 12.5 mg/kg/injection, schedule: Q01DX009 (ip), vehicle: saline with Tween-80): 103 % of control | T/C [4]: 103 % of control | T/C [5]: 107 % of control and 114 % of control | T/C [6]: 107 % of control and 116 % of control | T/C [17]: 115 % of control
